Assays:
Assay type in all cases: biochemical
PI3K (p110δ/p85α) = PI3K (p110δ/p85α) (Homo sapiens, UniProt O00329); assay: PI3Kδ assay (ADP-Glo Kinase Assay); conditions: recombinant enzyme; IC50 (nM) or max inhibition (%) at 0.5 μM
Experimental: Compounds disclosed herein were tested for inhibition of PI3Kδ kinase activity using commercial ADP-Glo™ Kinase Assay (Promega Corporation) and following the manufacture's instruction. Briefly, recombinant PI3K (p110δ/p85α) enzyme, lipid kinase substrate and a serial dilution of compounds disclosed herein were incubated for 0.5 hr at room temperature. ATP was added to initiate the kinase reaction. After incubation for 1 hr at room temperature, ADP-Glo™ reagent was added to terminate the kinase reaction and deplete the remaining ATP. After incubation for 1 hr at room temperature, kinase detection reagent was added to simultaneously convert ADP to ATP and allow the newly synthesized ATP to be measured using a luciferase/luciferin reaction. After incubation for 0.5 hr at room temperature, the luminescence generated was measured on a PHERAstar FS plate reader (BMG LABTECH). The residual enzyme activity in presence of increasing concentrations of compounds was calculated based on the luminescence. The IC50 for each compound was derived from fitting the data to the four-parameter logistic equation by Graphpad Prism software.

PI3K (p110α/p85α) = PI3K (p110α/p85α) (Homo sapiens, UniProt P42336); assay: PI3Kα assay (ADP-Glo Kinase Assay); conditions: recombinant enzyme; IC50 (nM) or max inhibition (%) at 0.5 μM
Sequence of PI3K (p110α/p85α) (P42336 whole entry): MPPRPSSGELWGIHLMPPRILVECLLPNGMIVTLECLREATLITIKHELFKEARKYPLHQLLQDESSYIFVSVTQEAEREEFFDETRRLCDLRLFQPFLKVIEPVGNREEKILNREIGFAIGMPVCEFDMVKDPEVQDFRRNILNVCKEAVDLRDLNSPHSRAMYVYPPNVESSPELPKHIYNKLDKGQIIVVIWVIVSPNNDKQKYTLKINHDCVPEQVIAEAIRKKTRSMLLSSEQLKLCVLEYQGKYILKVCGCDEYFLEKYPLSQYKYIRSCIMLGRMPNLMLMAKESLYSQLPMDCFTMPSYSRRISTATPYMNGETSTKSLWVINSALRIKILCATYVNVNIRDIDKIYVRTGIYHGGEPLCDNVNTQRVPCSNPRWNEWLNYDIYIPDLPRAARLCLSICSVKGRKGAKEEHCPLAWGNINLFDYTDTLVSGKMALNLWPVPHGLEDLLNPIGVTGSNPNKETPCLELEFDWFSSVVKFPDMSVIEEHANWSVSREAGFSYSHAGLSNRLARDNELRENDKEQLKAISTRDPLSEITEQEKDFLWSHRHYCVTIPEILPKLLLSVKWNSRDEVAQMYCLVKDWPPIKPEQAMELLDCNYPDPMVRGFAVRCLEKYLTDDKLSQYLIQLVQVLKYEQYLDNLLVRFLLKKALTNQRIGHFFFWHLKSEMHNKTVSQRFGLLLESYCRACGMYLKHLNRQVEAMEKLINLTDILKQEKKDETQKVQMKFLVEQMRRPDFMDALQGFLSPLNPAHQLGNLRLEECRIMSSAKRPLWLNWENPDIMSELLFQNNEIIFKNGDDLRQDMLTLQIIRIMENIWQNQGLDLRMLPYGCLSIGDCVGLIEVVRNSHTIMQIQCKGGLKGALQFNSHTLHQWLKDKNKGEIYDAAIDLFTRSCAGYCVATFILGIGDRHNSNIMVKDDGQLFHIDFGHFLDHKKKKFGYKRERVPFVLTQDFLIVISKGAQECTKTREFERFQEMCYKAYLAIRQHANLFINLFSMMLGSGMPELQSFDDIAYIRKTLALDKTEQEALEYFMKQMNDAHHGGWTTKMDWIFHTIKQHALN
Sequence of PI3K (p110α/p85α) (P27986 whole entry partner): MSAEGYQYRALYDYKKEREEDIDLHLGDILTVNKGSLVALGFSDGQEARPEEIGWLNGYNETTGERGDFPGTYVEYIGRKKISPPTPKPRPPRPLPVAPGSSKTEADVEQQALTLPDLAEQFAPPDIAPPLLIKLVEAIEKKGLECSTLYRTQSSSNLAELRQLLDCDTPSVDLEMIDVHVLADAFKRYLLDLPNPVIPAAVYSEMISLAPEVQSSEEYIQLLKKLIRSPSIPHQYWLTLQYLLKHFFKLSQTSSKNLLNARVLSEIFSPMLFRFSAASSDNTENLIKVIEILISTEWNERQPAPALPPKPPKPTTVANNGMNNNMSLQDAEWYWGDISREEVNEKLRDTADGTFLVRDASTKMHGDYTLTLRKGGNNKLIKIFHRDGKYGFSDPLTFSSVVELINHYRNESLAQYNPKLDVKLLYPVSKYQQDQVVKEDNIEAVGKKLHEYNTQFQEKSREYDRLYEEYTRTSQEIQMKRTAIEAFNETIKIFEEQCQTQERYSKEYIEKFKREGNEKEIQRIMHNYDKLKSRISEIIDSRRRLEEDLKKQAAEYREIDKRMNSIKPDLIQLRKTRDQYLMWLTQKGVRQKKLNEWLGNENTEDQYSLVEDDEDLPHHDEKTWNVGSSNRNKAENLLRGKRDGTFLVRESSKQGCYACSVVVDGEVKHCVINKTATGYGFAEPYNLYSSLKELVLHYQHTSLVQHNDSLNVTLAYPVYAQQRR

PI3K (p110β/p85α) = PI3K (p110β/p85α) (Homo sapiens, UniProt P42338); assay: PI3Kβ assay (ADP-Glo Kinase Assay); conditions: read-out: Enzyme activity IC50 PI3Kβ
Sequence of PI3K (p110β/p85α) (P42338 whole entry): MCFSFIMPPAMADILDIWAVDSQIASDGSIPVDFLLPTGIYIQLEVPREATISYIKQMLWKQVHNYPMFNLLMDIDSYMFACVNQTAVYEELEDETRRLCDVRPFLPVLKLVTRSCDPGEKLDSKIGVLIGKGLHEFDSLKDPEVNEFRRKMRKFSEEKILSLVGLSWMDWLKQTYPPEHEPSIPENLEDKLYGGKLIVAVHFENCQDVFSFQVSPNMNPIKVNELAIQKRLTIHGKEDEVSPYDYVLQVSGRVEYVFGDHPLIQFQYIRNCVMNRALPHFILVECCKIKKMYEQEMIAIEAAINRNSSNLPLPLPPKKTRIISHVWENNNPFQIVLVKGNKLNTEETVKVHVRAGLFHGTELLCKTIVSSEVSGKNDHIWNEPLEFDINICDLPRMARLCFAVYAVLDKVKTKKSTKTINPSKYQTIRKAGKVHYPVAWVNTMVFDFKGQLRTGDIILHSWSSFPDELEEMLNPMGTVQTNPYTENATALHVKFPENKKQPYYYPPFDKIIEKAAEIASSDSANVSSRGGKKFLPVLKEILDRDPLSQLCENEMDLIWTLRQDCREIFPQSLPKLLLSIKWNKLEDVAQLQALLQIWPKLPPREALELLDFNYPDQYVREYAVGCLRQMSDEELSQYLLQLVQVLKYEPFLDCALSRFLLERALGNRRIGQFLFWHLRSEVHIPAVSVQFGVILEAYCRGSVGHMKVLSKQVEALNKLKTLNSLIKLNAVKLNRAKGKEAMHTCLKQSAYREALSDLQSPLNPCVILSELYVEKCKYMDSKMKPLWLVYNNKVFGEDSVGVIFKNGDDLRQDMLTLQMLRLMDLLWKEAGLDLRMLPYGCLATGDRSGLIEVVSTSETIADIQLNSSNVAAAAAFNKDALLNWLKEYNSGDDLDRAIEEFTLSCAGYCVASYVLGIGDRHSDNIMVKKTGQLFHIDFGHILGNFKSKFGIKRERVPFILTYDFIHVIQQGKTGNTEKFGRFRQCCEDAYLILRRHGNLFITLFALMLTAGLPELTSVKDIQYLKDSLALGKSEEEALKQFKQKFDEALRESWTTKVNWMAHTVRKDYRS
Sequence of PI3K (p110β/p85α) (P27986 whole entry partner): as the sequence (P27986 whole entry partner) above

PI3K (p110γ) = PI3K (p110γ) (Homo sapiens, UniProt P48736); assay: PI3Kγ assay (ADP-Glo Kinase Assay); conditions: recombinant enzyme; IC50 (nM) or max inhibition (%) at 0.5 μM
Sequence of PI3K (p110γ) (P48736 whole entry): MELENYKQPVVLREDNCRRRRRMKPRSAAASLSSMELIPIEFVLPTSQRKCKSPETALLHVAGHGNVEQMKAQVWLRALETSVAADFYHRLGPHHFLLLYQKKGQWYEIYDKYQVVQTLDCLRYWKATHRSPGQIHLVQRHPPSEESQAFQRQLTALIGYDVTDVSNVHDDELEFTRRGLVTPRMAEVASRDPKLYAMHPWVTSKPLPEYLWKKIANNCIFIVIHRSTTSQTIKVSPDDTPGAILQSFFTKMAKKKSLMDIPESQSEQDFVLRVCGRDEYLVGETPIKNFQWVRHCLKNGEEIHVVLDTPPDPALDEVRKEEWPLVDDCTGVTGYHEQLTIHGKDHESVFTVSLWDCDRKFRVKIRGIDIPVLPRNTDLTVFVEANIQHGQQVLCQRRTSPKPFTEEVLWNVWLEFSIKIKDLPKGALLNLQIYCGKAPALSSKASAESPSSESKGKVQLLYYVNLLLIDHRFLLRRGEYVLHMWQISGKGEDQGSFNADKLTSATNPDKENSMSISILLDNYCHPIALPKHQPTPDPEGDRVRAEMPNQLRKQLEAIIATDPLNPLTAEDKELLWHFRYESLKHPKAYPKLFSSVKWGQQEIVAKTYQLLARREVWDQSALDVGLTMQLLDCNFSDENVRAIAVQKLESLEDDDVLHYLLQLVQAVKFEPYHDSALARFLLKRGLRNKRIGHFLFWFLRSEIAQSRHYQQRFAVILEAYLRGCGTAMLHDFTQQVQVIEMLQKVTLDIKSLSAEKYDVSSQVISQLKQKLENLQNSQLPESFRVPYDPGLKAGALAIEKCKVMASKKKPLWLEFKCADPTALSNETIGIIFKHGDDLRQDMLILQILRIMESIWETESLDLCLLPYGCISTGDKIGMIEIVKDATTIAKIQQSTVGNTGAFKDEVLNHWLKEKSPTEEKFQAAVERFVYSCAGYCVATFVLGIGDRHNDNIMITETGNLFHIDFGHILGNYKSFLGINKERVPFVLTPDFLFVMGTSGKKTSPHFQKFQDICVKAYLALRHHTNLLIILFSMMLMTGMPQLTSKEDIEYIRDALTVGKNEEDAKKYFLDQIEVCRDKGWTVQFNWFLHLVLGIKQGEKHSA

Sequence of PI3K (p110δ/p85α) (O00329 whole entry): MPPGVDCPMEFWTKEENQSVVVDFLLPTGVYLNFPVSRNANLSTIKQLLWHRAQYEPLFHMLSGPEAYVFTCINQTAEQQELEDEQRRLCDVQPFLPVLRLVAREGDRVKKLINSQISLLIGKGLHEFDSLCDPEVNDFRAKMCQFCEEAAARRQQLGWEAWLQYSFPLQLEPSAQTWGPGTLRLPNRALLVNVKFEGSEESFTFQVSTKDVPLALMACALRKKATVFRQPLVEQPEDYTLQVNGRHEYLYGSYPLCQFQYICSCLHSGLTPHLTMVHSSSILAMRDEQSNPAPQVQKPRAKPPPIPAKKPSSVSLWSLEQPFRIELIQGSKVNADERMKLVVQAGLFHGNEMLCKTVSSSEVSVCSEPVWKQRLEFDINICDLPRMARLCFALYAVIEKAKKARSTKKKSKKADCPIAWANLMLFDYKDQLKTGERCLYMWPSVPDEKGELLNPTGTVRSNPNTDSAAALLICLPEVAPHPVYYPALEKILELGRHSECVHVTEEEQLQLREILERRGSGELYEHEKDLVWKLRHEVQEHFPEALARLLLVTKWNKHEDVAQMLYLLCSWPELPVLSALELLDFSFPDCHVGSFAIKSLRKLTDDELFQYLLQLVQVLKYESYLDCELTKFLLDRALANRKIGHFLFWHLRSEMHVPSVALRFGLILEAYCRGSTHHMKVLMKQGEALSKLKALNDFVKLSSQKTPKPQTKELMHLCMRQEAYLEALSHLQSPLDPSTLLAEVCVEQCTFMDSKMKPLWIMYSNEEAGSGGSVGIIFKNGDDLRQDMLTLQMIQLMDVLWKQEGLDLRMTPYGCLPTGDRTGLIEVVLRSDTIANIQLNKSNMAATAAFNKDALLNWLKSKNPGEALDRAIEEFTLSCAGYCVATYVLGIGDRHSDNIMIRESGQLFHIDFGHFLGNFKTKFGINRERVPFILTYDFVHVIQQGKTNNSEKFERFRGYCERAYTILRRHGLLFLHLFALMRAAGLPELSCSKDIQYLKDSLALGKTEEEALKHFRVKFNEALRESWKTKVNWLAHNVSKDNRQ
Sequence of PI3K (p110δ/p85α) (P27986 whole entry partner): as the sequence (P27986 whole entry partner) above

Structure (SMILES) | IC50 (PI3K (p110δ/p85α)) [nM] | IC50 (PI3K (p110α/p85α)) [nM] | IC50 (PI3K (p110β/p85α)) [µM] | IC50 (PI3K (p110γ)) [nM]
Cc1nc([C@@H](C)c2cc(Cl)c(F)c(C(=O)NCCC3CCOCC3)c2OC(C)C)n2ccnc(N)c12 [Compound 26, (S)-3-(1-(8-amino-1-methylimidazol[1,5-a]pyrazin-3-yl)ethyl)-5-chloro-6-fluoro-2-isopropoxy-N-(2-(tetrahydro-2H-pyran-4-yl)ethyl)benzamide] | 0.86 | 24000 | 17 | 6500
Cc1nc([C@@H](C)c2cc(Cl)c(F)c(C(=O)N[C@@H]3CCCC[C@@H]3O)c2OC(C)C)n2ccnc(N)c12 [Compound 48, 3-((S)-1-(8-amino-1-methylimidazo[1,5-a]pyrazin-3-yl)ethyl)-5-chloro-6-fluoro-N-((1R,2S)-2-hydroxycyclohexyl)-2-isopropoxybenzamide] | 9.1 | – | – | –
Cc1nc(C(C)c2cc(Cl)c(F)c(C(=O)NC3(C(=O)O)CC3)c2OC(C)C)n2ccnc(N)c12 (stereo not shown) [Compound 2, 1-(3(1-(8-amino-1-methylimidazo[1,5-a]pyrazin-3-yl)ethyl)-5-chloro-6-fluoro-2-isopropoxybenzamido)cyclopropane-1-carboxylic acid] | 14 | > 50000 | > 50 | 5500
Cc1nc([C@@H](C)c2cc(Cl)c(F)c(C(=O)N[C@H](C)c3ccccc3)c2OC(C)C)n2ccnc(N)c12 [Compound 22, 3-((S)-1-(8-amino-1-methylimidazo[1,5-a]pyrazin-3-yl)ethyl)-5-chloro-6-fluoro-2-isopropoxy-N-((R)-1-phenylethyl)benzamide] | 3.7 | – | – | –
Cc1nc([C@@H](C)c2cc(Cl)c(F)c(C(=O)NCC3CCCOC3)c2OC(C)C)n2ccnc(N)c12 (stereo partly drawn) [Compound 50, 3-((S)-1-(8-amino-1-methylimidazo[1,5-a]pyrazin-3-yl)ethyl)-5-chloro-6-fluoro-2-isopropoxy-N-((tetrahydro-2H-pyran-3-yl)methyl)benzamide] | 1.2 | 15000 | 20 | 6100
Cc1nc([C@@H](C)c2cc(Cl)c(F)c(C(=O)N3CC4CCC(C3)O4)c2OC(C)C)n2ccnc(N)c12 [Compound 52, (3-((S)-1-(8-amino-1-methylimidazo[1,5-a]pyrazin-3-yl)ethyl)-5-chloro-6-fluoro-2-isopropoxyphenyl)(8-oxa-3-azabicyclo[3.2.1]octan-3-yl)methanone] | 1.4 | 10000 | 40 | 2500
Cc1nc(C(C)c2cc(Cl)c(F)c(C(=O)NC3(CO)CC3)c2OC(C)C)n2ccnc(N)c12 (stereo not shown) [Compound 5, 3-(1-(8-amino-1-methylimidazo[1,5-a]pyrazin-3-yl)ethyl)-5-chloro-6-fluoro-N-(1-(hydroxymethyl)cyclopropyl)-2-isopropoxybenzamide] | – | 56000 | 16 | 10000
Cc1nc(C(C)c2cc(Cl)c(F)c(C(=O)N3CC(C(=O)O)C3)c2OC(C)C)n2ccnc(N)c12 (stereo not shown) [Compound 1, 1-(3-(1-(8-amino-1-methylimidazo[1,5-a]pyrazin-3-yl)ethyl)-5-chloro-6-fluoro-2-isopropoxybenzoyl)azetidine-3-carboxylic acid] | 9.7 | > 50000 | > 50 | 9800
Cc1nc(C(C)c2cc(Cl)c(F)c(C(=O)N3CC[C@H](O)C3)c2OC(C)C)n2ccnc(N)c12 (stereo partly drawn) [Compound 6, (3-(1-(8-amino-1-methylimidazo[1,5-a]pyrazin-3-yl)ethyl)-5-chloro-6-fluoro-2-isopropoxyphenyl)((S)-3-hydroxypyrrolidin-1-yl)methanone] | 2.9 | > 50000 | > 50 | 17000
COCCNC(=O)c1c(F)c(Cl)cc(C(C)c2nc(C)c3c(N)nccn23)c1OC(C)C (stereo not shown) [Compound 8, 3-(1-(8-amino-1-methylimidazo[1,5-a]pyrazin-3-yl)ethyl)-5-chloro-6-fluoro-2-isopropoxy-N-(2-methoxyethyl)benzamide] | 2.3 | 49000 | 16 | 6800
Cc1nc(C(C)c2cc(Cl)c(F)c(C(=O)N[C@H]3CC[C@@H](O)C3)c2OC(C)C)n2ccnc(N)c12 (single isomer, unassigned) [Compound 14B] | 320 | – | – | –
Cc1nc([C@@H](C)c2cc(Cl)c(F)c(C(=O)N[C@]3(C)C[C@@H](O)C3)c2OC(C)C)n2ccnc(N)c12 [Compound 39, 3-((S)-1-(8-amino-1-methylimidazo[1,5-a]pyrazin-3-yl)ethyl)-5-chloro-6-fluoro-N-((1r,3S)-3-hydroxy-1-methylcyclobutyl)-2-isopropoxybenzamide] | 0.9 | 10000 | 2.3 | 28000
Cc1nc([C@@H](C)c2cc(Cl)c(F)c(C(=O)NC[C@@H]3CCCO3)c2OC(C)C)n2ccnc(N)c12 [Compound 24, 3-((S)-1-(8-amino-1-methylimidazo[1,5-a]pyrazin-3-yl)ethyl)-5-chloro-6-fluoro-2-isopropoxy-N-(((S)-tetrahydrofuran-2-yl)methyl)benzamide] | 1.6 | 36000 | 16 | 5800
Cc1nc(C(C)c2cc(Cl)c(F)c(C(=O)N3CCC(F)(F)CC3)c2OC(C)C)n2ccnc(N)c12 (single isomer, unassigned) [Compound 13B] | > 1000 | – | – | –
Cc1nc([C@@H](C)c2cc(Cl)c(F)c(C(=O)N3CCC[C@H](O)C3)c2OC(C)C)n2ccnc(N)c12 [Compound 20, (3-((S)-1-(8-amino-1-methylimidazo[1,5-a]pyrazin-3-yl)ethyl)-5-chloro-6-fluoro-2-isopropoxyphenyl)((S)-3-hydroxypiperidin-1-yl)methanone] | 2.1 | – | – | –
Cc1nc([C@@H](C)c2cc(Cl)c(F)c(C(=O)N(C)C)c2OC(C)C)n2ccnc(N)c12 [Compound 32, (S)-3-(1-(8-amino-1-methylimidazo[1,5-a]pyrazin-3-yl)ethyl)-5-chloro-6-fluoro-2-isopropoxy-N,N-dimethylbenzamide] | 3.2 | – | – | –
Cc1nc([C@@H](C)c2cc(Cl)c(F)c(C(=O)N[C@H](C)[C@@H](C)O)c2OC(C)C)n2ccnc(N)c12 [Compound 72, 3-((S)-1-(8-amino-1-methylimidazo[1,5-a]pyrazin-3-yl)ethyl)-5-chloro-6-fluoro-N-((2R,3R)-3-hydroxybutan-2-yl)-2-isopropoxybenzamide] | 6.8 | – | – | –
Cc1nc([C@@H](C)c2cc(Cl)c(F)c(C(=O)N[C@]3(C)CC[C@@H](O)CC3)c2OC(C)C)n2ccnc(N)c12 [Compound 40, 3-((S)-1-(8-amino-1-methylimidazo[1,5-a]pyrazin-3-yl)ethyl)-5-chloro-6-fluoro-N-((1R,4S)-4-hydroxy-1-methylcyclohexyl)-2-isopropoxybenzamide] | 6.5 | – | – | –
Cc1nc([C@@H](C)c2cc(Cl)c(F)c(C(=O)N[C@@H]3CCCC[C@H]3O)c2OC(C)C)n2ccnc(N)c12 [Compound 49, 3-((S)-1-(8-amino-1-methylimidazol[1,5-a]pyrazin-3-yl)ethyl)-5-chloro-6-fluoro-N-((1R,2R)-2-hydroxycyclohexyl)-2-isopropoxybenzamide] | 3.9 | – | – | –
Cc1nc(C(C)c2cc(Cl)c(F)c(C(=O)N3CCOCC3)c2OC(C)C)n2ccnc(N)c12 (single isomer, unassigned) [Compound 4B] | > 1000 | – | – | –
Cc1nc([C@@H](C)c2cc(Cl)c(F)c(C(=O)N3C[C@@H](C)O[C@@H](C)C3)c2OC(C)C)n2ccnc(N)c12 [Compound 67, (3-((S)-1-(8-amino-1-methylimidazo[1,5-a]pyrazin-3-yl)ethyl)-5-chloro-6-fluoro-2-isopropoxyphenyl)((2R,6S)-2,6-dimethylmorpholino)methanone] | 8 | – | – | –
Cc1nc([C@@H](C)c2cc(Cl)c(F)c(C(=O)N[C@@H]3CCC[C@@H]3O)c2OC(C)C)n2ccnc(N)c12 [Compound 23, 3((S)-1-(8-amino-1-methylimidazo[1,5-a]pyrazin-3-yl)ethyl)-5-chloro-6-fluoro-N-((1R,2S)-2-hydroxycyclopentyl)-2-isopropoxybenzamide] | 9.9 | – | – | –
Cc1nc([C@@H](C)c2cc(Cl)c(F)c(C(=O)NC3(CO)CC3)c2OC(C)C)n2ccnc(N)c12 [Compound 5A] | – | 21000 | 20 | 6300
CO[C@H]1CCCN(C(=O)c2c(F)c(Cl)cc([C@H](C)c3nc(C)c4c(N)nccn34)c2OC(C)C)C1 [Compound 65, (3-((S)-1-(8-amino-1-methylimidazo[1,5-a]pyrazin-3-yl)ethyl)-5-chloro-6-fluoro-2-isopropoxyphenyl)((S)-3-methoxypiperidin-1-yl)methanone] | 2.9 | – | > 50 | 6900
Cc1nc([C@@H](C)c2cc(Cl)c(F)c(C(=O)NC3(CN(C)C)CC3)c2OC(C)C)n2ccnc(N)c12 [Compound 54, (S)-3-(1-(8-amino-1-methylimidazo[1,5-a]pyrazin-3-yl)ethyl)-5-chloro-N-(1-((dimethylamino)methyl)cyclopropyl)-6-fluoro-2-isopropoxybenzamide] | 11 | – | – | –
